Data taken from publication PMC10222323, “Novel Biotinylated Cu(II)-Phenanthroline Complexes: 2D and 3D Cytotoxic Activity and Mechanistic Insight” (Molecules, 2023).
Where two headings read alike, the source gives them in different places.

Experiments:
[1] = system: HCT-15 (colorectal with low sensitivity for cisplatin) cancer cells; assay: MTT cytotoxicity test, 72 h, HCT-15; format: cell-based, human
Method: (§1) The in vitro anticancer potential of the newly developed complexes and of the ligands has been tested on six different cancer cell lines including PSN-1 (pancreatic), HCT-15 (colorectal with low sensitivity for cisplatin), 2008 (ovarian), A431 (cervical), MDA-MB-231 (breast), and U1285 (lung) cancer cells. For comparison purposes, cisplatin efficacy was assessed under the same experimental conditions.
(§2) Tested compounds were dissolved in DMSO and added to the cell-growth medium to a final solvent concentration of 0.5%, which is well reported to not have cytotoxic effects on cell viability. Cisplatin (Sigma Chemical Co., St. Louis, MO, USA) was dissolved in a physiologic solution (0.9% sodium chloride).
(§3) Human colon (HCT-15), pancreatic (PSN-1), and breast (MDA-MB-231) carcinoma-cell lines were obtained from the American Type Culture Collection (ATCC, Rockville, MD). Human cervical carcinoma (A431) cells were kindly provided by Prof. F. Zunino (Division of Experimental Oncology B, Istituto Nazionale dei Tumori, Milan). Human ovarian carcinoma (2008) cells and their cisplatin-resistant counterpart (C13*) were kindly provided by Prof. G. Marverti (Dipartimento di Scienze Biomediche, Università di Modena University, Italy). Cell lines were cultured in RPMI-1640 or DMEM medium (Euroclone) added with 10% fetal calf serum (Euroclone, Milan, Italy), antibiotics (50 units per mL penicillin, and 50 μg mL^−1 streptomycin), and 2 mM L-glutamine.
(§4) The growth inhibitory effect toward the tumour cell lines was evaluated by the MTT test as previously described.

[2] = system: A431 (cervical) cancer cells; assay: MTT cytotoxicity test, 72 h, A431; format: cell-based, human
Method: as §1, §2, §3, §4

[3] = system: U1285 (lung) cancer cells; assay: MTT cytotoxicity test, 72 h, U1285; format: cell-based, human; settings: mean ± S.D., read-out: IC50 U-1285
Method: as §1, §2, §4

[4] = system: PSN-1 (pancreatic) cancer cells; assay: MTT cytotoxicity test, 72 h, PSN-1; format: cell-based, human
Method: as §1, §2, §3, §4

[5] = system: 2008 (ovarian) cancer cells; assay: MTT cytotoxicity test, 72 h, 2008; format: cell-based, human
Method: as §1
(§5) Table 2 reported the IC50 values of the complexes against two types of ovarian cancer cells, one sensitive (2008) and one resistant to cisplatin (C13*). […] The resistance factor (R.F., the ratio among IC50 values obtained in resistant C13*cells and those calculated in the sensitive 2008 ones) calculated for all tested complexes resulted to be ≤2 (R.F. for cisplatin 11.1), strongly confirming the ability of the complexes to bypass cisplatin resistance.
as §2, §3, §4

[6] = system: MDA-MB-231 (breast) cancer cells; assay: MTT cytotoxicity test, 72 h, MDA-MB-231; format: cell-based, human
Method: as §1, §2, §3, §4

[7] = system: six different cancer cell lines; assay: MTT cytotoxicity, average over the cancer cell line panel; format: cell-based, human; settings: for cytotoxic activity of ligands (in words): compared with the complexes
Method: as §1
Due to note, all the complexes were very effective in the MDA-MB-231 cell line, which overexpress the SMVT (sodium-dependent multivitamin transporter) receptor, which is well known to be involved in the intracellular translocation of biotin [24].
as §4

noncancerous CHO cells = assay: Cytotoxicity against noncancerous CHO cells; format: cell-based; settings: for S.I. (selectivity index): average IC50 toward normal cells divided by the average IC50 for the malignant cells; for IC50: noncancerous cells
From the text: In order to preliminarily assess the possible toxic effect on noncancerous cells, we also evaluated the cytotoxic potential of the newly developed Cu(II) complexes against noncancerous CHO cells (Table 3). For all tested complexes, calculated IC50 values were higher than those obtained (on average) against tumour cells, thus indicating for this class of metal complexes a slightly preferential cytotoxicity against cancer cells, as attested by the calculated selectivity index values (SI = the quotient of the average IC50 toward normal cells divided by the average IC50 for the malignant cells).
as §4

DNA [8] = assay: Ethidium bromide displacement assay; format: binding; settings: EtBr displacement
Method: A number of research studies were performed on the elucidation of the mechanism of action of copper complexes in the past three decades. Despite several different molecular targets having been proposed for copper(II) complexes, DNA still represents one of the most substantiated when considering diamine ligands. On this basis, we thought it of interest to evaluate the ability of tested complexes to interact with DNA, both at molecular and cellular levels. An ethidium bromide (EB) displacement assay was used to understand if the complexes interact with the DNA at a molecular level. […] These values are very much in line with what was previously seen by us and also very close to the reported literature values of 2.60 × 10^7 M(bp^−1) and 3.04 × 10^7 M(bp^−1) for the bis complexes of [Cu(phen)2]^2+ and [Cu(DPQ)2]^2+ reported by Molphy et al.. […] It is largely possible that the presence of the 1,10-phenanthroline scaffold on compounds 3 and 4 is contributing to the increased displacement of the EtBr (probably by intercalation) and leading to a more noticeable decrease in the fluorescence.
EtBr displacement assays were performed in 10 mM phosphate buffer solution (pH 7.4) as described by Boger et al. The binding values were calculated using the % relative decrease of fluorescence at 50% and the equation below. (1) EEBEtBr/compound50%FI

[9] = system: C13* ovarian cancer cells (cisplatin-resistant); assay: MTT cytotoxicity test, 72 h, cisplatin-resistant C13*; format: cell-based, human; settings: for R.F. (resistance factor): RF = IC50 resistant (C13*)/IC50 parental cells (2008); for IC50: cisplatin-resistant cells, 72 h, MTT test
Method: as §5, §2, §3, §4

DNA [10] = system: DNA; set-up: method as in earlier work; settings: reported literature values; ref 26 (Molphy et al.); cited from earlier work
[11] = system: human pancreatic PSN-1 cancer-cell spheroids; assay: 3D spheroid cytotoxicity, APH assay, 72 h; format: cell-based; settings: 3D spheroids, 72 h, APH test
Method: The cancer spheroids were treated with tested complexes for 72 h, and the cell viability was estimated by means of a modified acid phosphatase (APH) assay.
Spheroid cultures were performed by seeding 2.5 × 10^3 PSN-1 cancer cells/well in spheroid-suitable tissue culture untreated 96-well plates (Greiner Bio-one, Kremsmünster, Austria) in RPMI-1640 cell culture medium without phenol red (Sigma Chemical Co., St. Louis, MO, USA) containing 10% fetal calf serum and supplemented with 20% methyl cellulose stock solution.
An established APH-modified assay was used to detect the cytotoxicity profile in 3D spheroids, as previously described. IC50 values were calculated using a 4-PL model.

MDA-MB-231 cells = settings: 24 h, 2 and 3 μM
Method: The ability to enter cancer cells is a very important factor to determine the biological activity of metal-based compounds. Consequently, with the aim of correlating the antiproliferative activity elicited by all the newly developed complexes and their accumulation profiles into cancer cells, the Cu content was evaluated in the SMVT overexpressing MDA-MB-231 cells. Uptake profiles were determined by treating cancer cells for 24 h with two concentrations (2 and 3 μM) of tested complexes.
MDA-MB-231 cells (2.5 × 10^6) were seeded in 75 cm^2 flasks in a growth medium (20 mL). Following 24 h, cells were treated for 24 h with tested complexes and samples processed as previously described.
Figure 2 Cellular uptake of complexes 1–4 in drug-treated MDA-MB-231 human breast cancer cells. Cells were incubated for 24 h with […] of tested complexes. The amount of cellular Cu was estimated by GF-AAS. Error bars are S.D.

[12] = Homo sapiens, Table 1, mean ± S.D.
[13] = Table 2, cisplatin-sensitive parental cells

| Molecule | IC50 ([1]; mean ± S.D.) | IC50 ([2]; mean ± S.D.) | IC50 [3] | IC50 ([4]; mean ± S.D.) | IC50 (noncancerous CHO cells) | IC50 ([5]; Table 1, mean ± S.D.) | IC50 [5, 13] | IC50 ([6]; mean ± S.D.) | R.F. (resistance factor) [9] | IC50 [9] | other results |
| --- | --- | --- | --- | --- | --- | --- | --- | --- | --- | --- | --- |
| O=C(CCCC[C@@H]1SC[C@@H]2NC(=O)N[C@@H]21)NN=C1c2cccnc2-c2ncccc21 [A, Biotin-Dafone] | – | – | – | – | – | – | – | – | – | – | IC50 ([1]; Homo sapiens, HCT-15, mean ± S.D.): > 50000 nM; IC50 ([2]; Homo sapiens, A-431, mean ± S.D.): > 50000 nM; IC50 ([3]; Homo sapiens): > 50 µM; IC50 ([4]; Homo sapiens, PSN1, mean ± S.D.): > 50000 nM; IC50 [5, 12]: > 50 µM; IC50 ([6]; Homo sapiens, MDA-MB-231, mean ± S.D.): > 50000 nM; cytotoxic activity of ligands (in words) [7]: did not show activity comparable to the complexes |
| O=C(CCCC[C@@H]1SC[C@@H]2NC(=O)N[C@@H]21)NN=C1c2ccc[n+]3c2-c2c1ccc[n+]2[Cu-2]3([Cl])[Cl] [Complex 1, [Cu(dafone-biotin)Cl2]] | 400 ± 100 nM | 7200 ± 600 nM | 5.9 ± 0.5 µM | 600 ± 200 nM | 13.1 ± 0.9 µM | 4.5 ± 0.6 µM | 4.5 ± 0.6 µM | 2100 ± 400 nM | 0.4 | 2000 ± 800 nM | S.I. (selectivity index) (noncancerous CHO cells): 3.9; fluorescence quenching (in words) (DNA [8]): very small quenching; IC50 ([7]; 2D assays, average over the cancer cell lines of Table 1): 3.4 µM |
| [Cu+2].c1cnc2c(c1)ccc1cccnc12.c1cnc2c(c1)ccc1cccnc12 [[Cu(phen)2]^2+, copper bis-phenanthroline [Cu(phen)2]^2+] | – | – | – | – | – | – | – | – | – | – | binding constant (literature) (DNA [10]): 2.60 × 10^7 M(bp^−1) |
| O=C(CCCC[C@@H]1SC[C@@H]2NC(=O)N[C@@H]21)N/N=C1\C(=O)c2cccnc2-c2ncccc21 [B, Biotin-Phen] | – | – | – | – | – | – | – | – | – | – | IC50 ([3]; Homo sapiens): 28.1 ± 2.77 µM; IC50 [5, 12]: 21.5 ± 0.72 µM; cytotoxic activity of ligands (in words) [7]: did not show activity comparable to the complexes |
| N.N.[Cl][Pt][Cl] [Cisplatin, cisplatin, reference compound] | 13900 ± 1700 nM | 2100 ± 900 nM | 2.1 ± 0.9 µM | 12100 ± 2900 nM | 24.1 ± 3 µM | 2.2 ± 1.4 µM | 2.2 ± 1.4 µM | 30500 ± 2600 nM | 11.1 | 24100 ± 3000 nM | IC50 [11]: 52.6 ± 3.8 µM |
| [Cu(phen)(dafone-biotin)](NO3)2 [Complex 3] | 1800 ± 200 nM | 900 ± 200 nM | 3 ± 0.3 µM | 700 ± 200 nM | 2.1 ± 0.8 µM | 3.3 ± 0.1 µM | 3.3 ± 0.1 µM | 1400 ± 400 nM | 0.7 | 2500 ± 200 nM | Cu intracellular content (uptake) (MDA-MB-231 cells): most internalised into cancer cells; S.I. (selectivity index) (noncancerous CHO cells): 1.1; fluorescence quenching (in words) (DNA [8]): highest quenching values; relative fluorescence decrease (DNA [8]): greater than 50%; binding constant (DNA [8]; 10 mM phosphate buffer pH 7.4, from 50% fluorescence decrease): 2.53 × 10^7 M(bp^−1) |
| c1cc2c3nccnc3c3ccc[n+]4c3c2[n+](c1)[Cu-2]41[n+]2cccc3c4nccnc4c4ccc[n+]1c4c32 [[Cu(DPQ)2]^2+] | – | – | – | – | – | – | – | – | – | – | binding constant (literature) (DNA [10]): 3.04 × 10^7 M(bp^−1) |
